Results from PubChem BioAssay (NCI).
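The compound was tested at five concentrations on cells cultured in 96-well plates, with a 48-hour exposure period. TGI: concentration producing complete growth inhibition.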

What was measured:
Experiment in all cases: NCI tumour cell line growth inhibition, 48 h
XF 498 CNS = system: XF 498 CNS
OVCAR-3 ovarian = system: OVCAR-3 ovarian
SF-268 CNS = system: SF-268 CNS
A549 NSCLC = system: A549 NSCLC
COLO 205 colon = system: COLO 205 colon
DMS 273 small cell lung = system: DMS 273 small cell lung
NCI-H226 lung = system: NCI-H226 lung
UACC-62 melanoma = system: UACC-62 melanoma
DLD-1 colon = system: DLD-1 colon
HL-60(TB) leukemia = system: HL-60(TB) leukemia
UO-31 renal = system: UO-31 renal
DMS 114 small cell lung = system: DMS 114 small cell lung
HCT-116 colon = system: HCT-116 colon
SK-OV-3 ovarian = system: SK-OV-3 ovarian
SK-MEL-2 melanoma = system: SK-MEL-2 melanoma
HOP-18 NSCLC = system: HOP-18 NSCLC
SK-MEL-5 melanoma = system: SK-MEL-5 melanoma
KM20L2 colon = system: KM20L2 colon
OVCAR-4 ovarian = system: OVCAR-4 ovarian
SNB-19 CNS = system: SNB-19 CNS
ACHN renal = system: ACHN renal
SF-295 CNS = system: SF-295 CNS
HT29 colon = system: HT29 colon
SK-MEL-28 melanoma = system: SK-MEL-28 melanoma
RPMI-8226 leukemia = system: RPMI-8226 leukemia
IGROV1 ovarian = system: IGROV1 ovarian
NCI-H522 lung = system: NCI-H522 lung
MALME-3M melanoma = system: MALME-3M melanoma
A498 renal = system: A498 renal
OVCAR-8 ovarian = system: OVCAR-8 ovarian
NCI-H460 lung = system: NCI-H460 lung
K-562 leukemia = system: K-562 leukemia
SNB-75 CNS = system: SNB-75 CNS
SNB-78 CNS = system: SNB-78 CNS
HOP-62 NSCLC = system: HOP-62 NSCLC
M14 melanoma = system: M14 melanoma
TK-10 renal = system: TK-10 renal
U251 CNS = system: U251 CNS
CAKI-1 renal = system: CAKI-1 renal
786-0 renal = system: 786-0 renal
MOLT-4 leukemia = system: MOLT-4 leukemia
SW-620 colon = system: SW-620 colon
LXFL 529 NSCLC = system: LXFL 529 NSCLC
SN12C renal = system: SN12C renal
KM12 colon = system: KM12 colon
EKVX NSCLC = system: EKVX NSCLC
SR leukemia = system: SR leukemia
CCRF-CEM leukemia = system: CCRF-CEM leukemia
OVCAR-5 ovarian = system: OVCAR-5 ovarian
RXF-631 renal = system: RXF-631 renal
SF-539 CNS = system: SF-539 CNS
UACC-257 melanoma = system: UACC-257 melanoma
NCI-H23 lung = system: NCI-H23 lung
HCT-15 colon = system: HCT-15 colon
HOP-92 NSCLC = system: HOP-92 NSCLC
RXF 393 renal = system: RXF 393 renal
HCC-2998 colon = system: HCC-2998 colon
M19-MEL melanoma = system: M19-MEL melanoma
NCI/ADR-RES ovarian = system: NCI/ADR-RES ovarian
P388/ADR leukemia = system: P388/ADR leukemia
P388 leukemia = system: P388 leukemia
SN12K1 renal = system: SN12K1 renal
LOX IMVI melanoma = system: LOX IMVI melanoma

## Cc1cc(Cl)ccc1N1C(=O)C(=O)C(c2nc3ccccc3s2)C(=O)C1=O
XF 498 CNS
  TGI: > 100 µM
OVCAR-3 ovarian
  TGI: > 100 µM
SF-268 CNS
  TGI: > 100 µM
A549 NSCLC
  TGI: > 100 µM
COLO 205 colon
  TGI: > 100 µM
DMS 273 small cell lung
  TGI: > 100 µM
NCI-H226 lung
  TGI: > 100 µM
UACC-62 melanoma
  TGI: > 100 µM
DLD-1 colon
  TGI: > 100 µM
HL-60(TB) leukemia
  TGI: > 100 µM
UO-31 renal
  TGI: > 100 µM
DMS 114 small cell lung
  TGI: > 100 µM
HCT-116 colon
  TGI: > 100 µM
SK-OV-3 ovarian
  TGI: > 100 µM
SK-MEL-2 melanoma
  TGI: > 100 µM
HOP-18 NSCLC
  TGI: > 100 µM
SK-MEL-5 melanoma
  TGI: > 100 µM
KM20L2 colon
  TGI: > 100 µM
OVCAR-4 ovarian
  TGI: > 100 µM
SNB-19 CNS
  TGI: > 100 µM
ACHN renal
  TGI: > 100 µM
SF-295 CNS
  TGI: > 100 µM
HT29 colon
  TGI: > 100 µM
SK-MEL-28 melanoma
  TGI: > 100 µM
RPMI-8226 leukemia
  TGI: > 100 µM
IGROV1 ovarian
  TGI: > 100 µM
NCI-H522 lung
  TGI: > 100 µM
MALME-3M melanoma
  TGI: > 100 µM
A498 renal
  TGI: > 100 µM
OVCAR-8 ovarian
  TGI: > 100 µM
NCI-H460 lung
  TGI: > 100 µM
K-562 leukemia
  TGI: > 100 µM
SNB-75 CNS
  TGI: > 100 µM
SNB-78 CNS
  TGI: > 100 µM
HOP-62 NSCLC
  TGI: > 100 µM
M14 melanoma
  TGI: > 100 µM
TK-10 renal
  TGI: > 100 µM
U251 CNS
  TGI: > 100 µM
CAKI-1 renal
  TGI: > 100 µM
786-0 renal
  TGI: > 100 µM
MOLT-4 leukemia
  TGI: > 100 µM
SW-620 colon
  TGI: > 100 µM
LXFL 529 NSCLC
  TGI: > 100 µM
SN12C renal
  TGI: > 100 µM
KM12 colon
  TGI: > 100 µM
EKVX NSCLC
  TGI: > 100 µM
SR leukemia
  TGI: > 100 µM
CCRF-CEM leukemia
  TGI: > 100 µM
OVCAR-5 ovarian
  TGI: > 100 µM
RXF-631 renal
  TGI: > 100 µM
SF-539 CNS
  TGI: > 100 µM
UACC-257 melanoma
  TGI: > 100 µM
NCI-H23 lung
  TGI: > 100 µM
HCT-15 colon
  TGI: > 100 µM
HOP-92 NSCLC
  TGI: > 100 µM

## C/C=C/C1(NS(=O)(=O)c2ccc(C)cc2)CCC(C(C)(C)C)CC1 (stereo unspecified)
XF 498 CNS
  TGI: 39.3 µM
OVCAR-3 ovarian
  TGI: 34.9 µM
SF-268 CNS
  TGI: 59.5 µM
A549 NSCLC
  TGI: > 100 µM
COLO 205 colon
  TGI: 42.3 µM
RXF 393 renal
  TGI: 42.3 µM
DMS 273 small cell lung
  TGI: 31.5 µM
NCI-H226 lung
  TGI: 44.4 µM
UACC-62 melanoma
  TGI: 37.4 µM
DLD-1 colon
  TGI: > 100 µM
HL-60(TB) leukemia
  TGI: 44.5 µM
UO-31 renal
  TGI: 62.3 µM
DMS 114 small cell lung
  TGI: 62.3 µM
HCT-116 colon
  TGI: 36 µM
SK-OV-3 ovarian
  TGI: 81.5 µM
SK-MEL-2 melanoma
  TGI: 34.8 µM
HOP-18 NSCLC
  TGI: > 100 µM
SK-MEL-5 melanoma
  TGI: 31.8 µM
KM20L2 colon
  TGI: 38.7 µM
OVCAR-4 ovarian
  TGI: 48.4 µM
SNB-19 CNS
  TGI: > 100 µM
ACHN renal
  TGI: > 100 µM
SF-295 CNS
  TGI: 61.4 µM
HT29 colon
  TGI: 37.9 µM
RPMI-8226 leukemia
  TGI: 47.1 µM
IGROV1 ovarian
  TGI: 77.2 µM
NCI-H522 lung
  TGI: 26 µM
MALME-3M melanoma
  TGI: 49.4 µM
A498 renal
  TGI: 49.3 µM
OVCAR-8 ovarian
  TGI: > 100 µM
NCI-H460 lung
  TGI: 51.5 µM
HCC-2998 colon
  TGI: 36.1 µM
K-562 leukemia
  TGI: 99.5 µM
SNB-75 CNS
  TGI: > 100 µM
SNB-78 CNS
  TGI: 64.1 µM
HOP-62 NSCLC
  TGI: 49.7 µM
M14 melanoma
  TGI: 35.1 µM
M19-MEL melanoma
  TGI: 41 µM
TK-10 renal
  TGI: 94.6 µM
U251 CNS
  TGI: 29.5 µM
CAKI-1 renal
  TGI: 98.1 µM
786-0 renal
  TGI: 43.8 µM
MOLT-4 leukemia
  TGI: 39.9 µM
SW-620 colon
  TGI: 67.3 µM
LXFL 529 NSCLC
  TGI: > 100 µM
SN12C renal
  TGI: 34.7 µM
KM12 colon
  TGI: 39 µM
EKVX NSCLC
  TGI: 64.5 µM
SR leukemia
  TGI: 32.9 µM
CCRF-CEM leukemia
  TGI: 43.2 µM
OVCAR-5 ovarian
  TGI: 39.5 µM
RXF-631 renal
  TGI: 71.8 µM
SF-539 CNS
  TGI: 44.1 µM
UACC-257 melanoma
  TGI: 56 µM
NCI-H23 lung
  TGI: 51.7 µM
HCT-15 colon
  TGI: 93.7 µM
HOP-92 NSCLC
  TGI: 41.6 µM

## O=c1c(-c2ccccc2)c[nH]c2cc([N+](=O)[O-])c(/C(Cl)=C/c3ccccc3)cc12
XF 498 CNS
  TGI: 23.7 µM
OVCAR-3 ovarian
  TGI: 8.72 µM
SF-268 CNS
  TGI: 16.7 µM
A549 NSCLC
  TGI: 19.6 µM
COLO 205 colon
  TGI: > 38.2 µM
RXF 393 renal
  TGI: 29.5 µM
DMS 273 small cell lung
  TGI: > 38.7 µM
NCI-H226 lung
  TGI: 34 µM
UACC-62 melanoma
  TGI: 22.6 µM
DLD-1 colon
  TGI: 13.6 µM
HL-60(TB) leukemia
  TGI: 31.6 µM
UO-31 renal
  TGI: 36.8 µM
DMS 114 small cell lung
  TGI: 19 µM
HCT-116 colon
  TGI: 29.9 µM
SK-OV-3 ovarian
  TGI: > 100 µM
SK-MEL-2 melanoma
  TGI: > 100 µM
HOP-18 NSCLC
  TGI: 23.1 µM
SK-MEL-5 melanoma
  TGI: 25.8 µM
KM20L2 colon
  TGI: > 54.3 µM
NCI/ADR-RES ovarian
  TGI: 25.5 µM
P388/ADR leukemia
  TGI: > 45.3 µM
OVCAR-4 ovarian
  TGI: 8.64 µM
SNB-19 CNS
  TGI: > 54.5 µM
SF-295 CNS
  TGI: 26.5 µM
HT29 colon
  TGI: > 51.6 µM
P388 leukemia
  TGI: > 31.6 µM
SK-MEL-28 melanoma
  TGI: > 55.1 µM
RPMI-8226 leukemia
  TGI: 9.98 µM
IGROV1 ovarian
  TGI: > 38.6 µM
NCI-H522 lung
  TGI: 16.3 µM
SN12K1 renal
  TGI: > 41.7 µM
LOX IMVI melanoma
  TGI: > 22.5 µM
A498 renal
  TGI: 35.4 µM
OVCAR-8 ovarian
  TGI: 17.5 µM
NCI-H460 lung
  TGI: 44.8 µM
K-562 leukemia
  TGI: 20.7 µM
SNB-75 CNS
  TGI: 24.1 µM
SNB-78 CNS
  TGI: > 27 µM
HOP-62 NSCLC
  TGI: 52 µM
M19-MEL melanoma
  TGI: > 42.5 µM
U251 CNS
  TGI: 24.4 µM
CAKI-1 renal
  TGI: 87.7 µM
MOLT-4 leukemia
  TGI: 24 µM
SW-620 colon
  TGI: 26.8 µM
SN12C renal
  TGI: 43.7 µM
KM12 colon
  TGI: 38.6 µM
EKVX NSCLC
  TGI: 18.6 µM
CCRF-CEM leukemia
  TGI: 20.3 µM
OVCAR-5 ovarian
  TGI: > 59.5 µM
SF-539 CNS
  TGI: 27.7 µM
UACC-257 melanoma
  TGI: 97.3 µM
NCI-H23 lung
  TGI: > 44.5 µM
HCT-15 colon
  TGI: > 47.1 µM
HOP-92 NSCLC
  TGI: 10.6 µM
